Our source for the IC50 values is patent publication US11352330B2, “Phenoxymethyl derivatives” (Hoffmann-La Roche Inc., priority 2015, dated 2022).

The target in this assay is human ATX (Homo sapiens (Human), UniProt Q13822). The experiment in a line: Human ATX enzyme inhibition assay (fluorescence quenching, MR121 substrate). It is filed as biochemical. The conditions noted are these: human His-tagged ATX 30 nM, MR121 substrate 1 μM, 30° C. Here is the method: Human ATX Enzyme Inhibition Assay
ATX inhibition was measured by a fluorescence quenching assay using a specifically labeled substrate analogue (MR121 substrate). To obtain this MR121 substrate, BOC and TBS protected 6-amino-hexanoic acid (R)-3-({2-[3-(2-{2-[2-(2-amino-ethoxy)-ethoxy]-ethoxy}-ethoxy)-propionylamino]-ethoxy}-hydroxy-phosphoryloxy)-2-hydroxy-propyl ester (Ferguson et al., Org Lett 2006, 8 (10), 2023) was labeled with MR121 fluorophore (CAS 185308-24-1, 1-(3-carboxypropyl)-11-ethyl-1,2,3,4,8,9,10,11-octahydro-dipyrido[3,2-b:2′,3′-i]phenoxazin-13-ium) on the free amine of the ethanolamine side and then, after deprotection, subsequently with tryptophan on the side of the aminohexanoic acid.
Assay working solutions were made as follows:
Assay buffer (50 mM Tris-HCl, 140 mM NaCl, 5 mM KCl, 1 mM CaCl2, 1 mM MgCl2, 0.01% Triton-X-100, pH 8.0;
ATX solution: ATX (human His-tagged) stock solution (1.08 mg/mL in 20 mM bicine, pH 8.5, 0.15 M NaCl, 10% glycerol, 0.3% CHAPS, 0.02% NaN3), diluted to 1.4-2.5× final concentration in assay buffer;
MR121 substrate solution: MR121 substrate stock solution (800 μM MR121 substrate in DMSO), diluted to 2-5× final concentration in assay buffer.
Test compounds (10 mM stock in DMSO, 8 μL) were obtained in 384 well sample plates (Corning Costar #3655) and diluted with 8 μL DMSO. Row-wise serial dilutions were made by transferring 8 μL cpd solution to the next row up to row O. The compound and control solutions were mixed five times and 2 μL were transferred to 384 well assay plates (Corning Costar #3702). Then, 15 μL of 41.7 nM ATX solution was added (30 nM final concentration), mixed five times and then incubated for 15 minutes at 30° C. 10 μL of MR121 substrate solution was added (1 μM final concentration), mixed 30 times and then incubated for 15 minutes at 30° C.

For orientation: IC50 means the point on the concentration scale where inhibition reaches its midpoint. High values mean weaker potency in that assay, low ones greater potency in that assay.

In the case of `COc1cccc(-c2cc(C#N)c(Cl)cc2OCc2n[nH]c(=O)n2C)c1F` [Example B88], the IC50 came out at 1 nM.
Next, `COCC(=O)N(C)Cc1ccc(F)c(-c2cc(Cl)c(C)cc2OCc2n[nH]c(=O)n2C)c1` [Example B78]: 7 nM.
Next, `Cc1cc(OCc2n[nH]c(=O)n2C)c(-c2cc(CN3CC(=O)N(C)CC3=O)ccc2F)cc1Cl` [Example B76]: 11 nM; `Cc1cc(OCc2n[nH]c(=O)n2C)c(-c2cc(C(=O)N3CCOCC3)ccc2F)cc1Cl` [Example B40]: 15 nM; `Cc1cc(OCc2ccc(=O)[nH]n2)c(-c2cccnc2O)cc1Cl` [Example C11]: 5980 nM.
For `Cc1cc(OCc2n[nH]c(=O)n2C)c(-c2ccnn2C)cc1Cl` [Example B30] the value was 467 nM.
`Cc1cc(OCc2n[nH]c(=O)n2C)c(-c2cc(OC3CC3)ccc2F)cc1Cl` [Example B92] displayed an IC50 of 1 nM.
With `Cc1cc(C(C)(C)C)c(OCc2n[nH]c(=O)n2C)cc1C#N` [Example A17], the midpoint of inhibition, the IC50, lay at 35 nM. Compared with the last compound, the IC50 is about 35-fold higher.
Next, `Cc1cc(OCc2n[nH]c(=O)n2C)c(-c2cccc(C#N)c2)cc1Cl` [Example B5]: 3 nM.
`Cc1cc(OCc2n[nH]c(=O)n2C)c(-c2cccc(C(=O)NCCC(=O)O)c2)cc1Cl` [Example B47] yielded an IC50 of 82 nM.
Next, `Cc1cc(OCc2n[nH]c3nc(N(C)CCO)ccc23)c(C(C)(C)C)cc1Cl` [Example D8, 2-[[3-[(2-tert-Butyl-4-chloro-5-methylphenoxy)methyl]-1H-pyrazolo[3,4-b]pyridin-6-yl]-methylamino]ethanol]: 6 nM; `Cn1c(COc2cc(Cl)c(C#N)cc2-c2ccccc2)n[nH]c1=O` [Example B31]: 43 nM.
As to `CC(C)c1cc(Cl)c(F)cc1OCc1ccc(=O)[nH]n1` [Example C3, 3-[(4-chloro-5-fluoro-2-propan-2-ylphenoxy)methyl]-1H-pyridazin-6-one], half-maximal inhibition (IC50) was put at 4 nM. This IC50 is about 11-fold lower than that of the compound before.
For `CCOc1ccc(F)c(-c2cc(Cl)c(C)cc2OCc2n[nH]c(=O)n2C)c1` [Example B55] the value was 9 nM.
For `Cn1c(COc2cc(F)c(Cl)cc2C(C)(C)C)n[nH]c1=O` [Example A2] the value was 10 nM.
For `Cc1cc(OCc2n[nH]c3nc(N(C)CCO)ncc23)c(C(C)(C)C)cc1Cl` [Example D26, 2-[[3-[(2-tert-Butyl-4-chloro-5-methylphenoxy)methyl]-1H-pyrazolo[3,4-d]pyrimidin-6-yl]-methylamino]ethanol] the value was 14 nM.
In turn, `Cc1cc(OCc2n[nH]c3c2CCNC3)c(C(C)(C)C)cc1Cl` [Example E4, 3-((2-tert-Butyl-4-chloro-5-methylphenoxy)methyl)-4,5,6,7-tetrahydro-1H-pyrazolo[3,4-c]pyridine] showed an IC50 of 19 nM. This IC50 and that of the compound before are within 1.5-fold of each other.
Next, `Cc1cc(OCc2n[nH]c(=O)n2C)c(C(C)C)cc1Cl` [Example A28]: 5 nM; `Cc1cc(OCc2n[nH]c(=O)n2C)c(C2CCOCC2)cc1Cl` [Example A21]: 62 nM; `Cn1c(COc2cc(Cl)c(C#N)cc2-c2cc(C(=O)N3CCOCC3)ccc2F)n[nH]c1=O` [Example B61]: 10 nM.
Next, `Cn1c(COc2cc(C#N)c(Cl)cc2C(C)(C)C)n[nH]c1=O` [Example A34, 4-tert-Butyl-2-chloro-5-[(4-methyl-5-oxo-1H-1,2,4-triazol-3-yl)methoxy]benzonitrile]: 28 nM.
The compound `CC(C)(C)c1cc(Cl)c(C#N)cc1OCc1n[nH]c2ncccc12` [Example D52] registered an IC50 of 2 nM. This IC50 is about 14-fold lower than that of the compound before.
For `N#Cc1cc(-c2cc(OC3CC3)ccc2F)c(OCc2n[nH]c3cnccc23)cc1Cl` [Example D51] the value was 69 nM.
`CC(C)c1cc2c(cc1OCc1n[nH]c(=O)n1C)C(C)(C)CC2` [Example A3] came in with an IC50 of 25 nM.
For `Cc1cc(OCc2n[nH]c3ccccc23)c(-c2cc(C(=O)N3CCN(C)C(=O)C3)ccc2F)cc1Cl` [Example D41] the value was 7 nM.
Next, `COCCNC(=O)c1cccc(-c2cc(Cl)c(C)cc2OCc2n[nH]c3ncccc23)c1` [Example D16]: 18 nM; `CC(=O)N1CCc2c(COc3cc(C)c(Cl)cc3C(C)(C)C)n[nH]c2C1` [Example E5, 1-(3-((2-tert-Butyl-4-chloro-5-methylphenoxy)methyl)-4,5-dihydro-1H-pyrazolo[3,4-c]pyridin-6(7H)-yl)ethanone]: 17 nM.
Next, `Cn1c(COc2cc(Cl)c(C#N)cc2-c2cc(OCC3CCCO3)ccc2F)n[nH]c1=O` (stereo not shown) [Example B87]: 5 nM; `Cc1cc(OCc2n[nH]c3nc(N(C)CC(O)CO)ncc23)c(C(C)(C)C)cc1Cl` (stereo not shown) [Example D27]: 8 nM; `COCC(=O)N1CCc2[nH]nc(COc3cc(C)c(Cl)cc3C(C)(C)C)c2C1` [Example E3, 1-(3-((2-tert-Butyl-4-chloro-5-methylphenoxy)methyl)-6,7-dihydro-1H-pyrazolo[4,3-c]pyridin-5(4H)-yl)-2-methoxyethanone]: 80400 nM.
Regarding `Cc1cc(OCc2n[nH]c(=O)n2C)c(-c2cc(OCC(=O)N(C)C)ccc2F)cc1Cl` [Example B75], the IC50 was 10 nM.
For `Cc1cc(OCc2cc[nH]n2)c(C(C)(C)C)cc1C#N` [Example F2, 4-((1H-Pyrazol-3-yl)methoxy)-5-tert-butyl-2-methylbenzonitrile] the value was 18 nM.
For `Cn1c(COc2cc(Cl)c(C#N)cc2-c2ccccc2F)n[nH]c1=O` [Example B84] the value was 19 nM; for `CC(C)c1cc(C#N)ccc1OCc1n[nH]c(=O)n1C` [Example A11], 15 nM.
As to `Cc1cc(OCc2n[nH]c(=O)n2C)c(-c2ccno2)cc1Cl` [Example B25], the IC50 came out at 20 nM. This IC50 and that of the compound before are within 1.5-fold of each other.
Next, `Cc1cc(OCc2n[nH]c(=O)n2C)c(-c2cccc(C(=O)N3CCCCC3)c2)cc1Cl` [Example B8]: 10 nM; `Cc1cc(OCc2n[nH]c(=O)n2C)c(-c2cc(C(=O)N(C)C3CCCC3)ccc2F)cc1Cl` [Example B66]: 7 nM; `Cc1cc(OCc2n[nH]c(=O)n2C)c(-c2cc(C(=O)N(C)C)ccc2F)cc1Cl` [Example B38]: 8 nM.
Next, `Cn1c(COc2cc(S(C)(=O)=O)c(Cl)cc2C2CC2)n[nH]c1=O` [Example A14]: 1890 nM; `Cc1cc(OCc2n[nH]c(=O)n2C)c(-c2cc(Cl)cc(C(N)=O)c2)cc1Cl` [Example B14]: 79 nM; `Cn1c(COc2ccc(S(C)(=O)=O)cc2C(C)(C)C)n[nH]c1=O` [Example A15]: 230 nM.
In the case of `COc1ccc(C(C)C)cc1-c1cc(Cl)c(C)cc1OCc1n[nH]c(=O)n1C` [Example B60], inhibition was half-maximal at 11 nM (IC50). This IC50 is about 21-fold lower than that of the compound before.
Next, `Cn1c(COc2cc(Cl)c(C#N)cc2-c2ccc(F)cc2)n[nH]c1=O` [Example B32]: 31 nM.
For `Cc1cc(OCc2n[nH]c(=O)n2C)c(-c2cc(C(=O)N(C)Cc3cccs3)ccc2F)cc1Cl` [Example B68] the value was 7 nM; for `Cc1cc(OCc2n[nH]c3ncccc23)c(-c2cccc(C(=O)NCCO)c2)cc1Cl` [Example D19], 35 nM.
For `Cc1cc(OCc2ccc(=O)[nH]n2)c(C(C)C)cc1Cl` [Example C1, 3-[(4-Chloro-5-methyl-2-propan-2-ylphenoxy)methyl]-1H-pyridazin-6-one] the value was 19 nM; for `Cc1cc(OCc2n[nH]c(=O)n2C)c(-c2cc(CN3CCOC3=O)ccc2F)cc1Cl` [Example B82], 8 nM.
Turning to `Cc1cc(OCc2n[nH]c(=O)n2C)c(C(C)(C)C)cc1Cl` [Example A1, 3-[(2-tert-Butyl-4-chloro-5-methylphenoxy)methyl]-4-methyl-1H-1,2,4-triazol-5-one], 2 nM corresponded to half-maximal inhibition (IC50).
Next, `Cc1cc(OCc2ccc(=O)[nH]n2)c(C(C)(C)C#N)cc1Cl` [Example C9, 2-[5-chloro-4-methyl-2-[(6-oxo-1H-pyridazin-3-yl)methoxy]phenyl]-2-methylpropanenitrile]: 46 nM; `Cn1c(COc2cc(C#N)c(Cl)cc2C2CC2)n[nH]c1=O` [Example A22]: 173 nM.
`Cc1cc(OCc2n[nH]c3cccnc23)c(-c2cccc(C(=O)N(C)C)c2)cc1Cl` [Example D24] had an IC50 of 99 nM.
Next, `CC(C)(C)c1cc(Cl)c(F)cc1OCc1n[nH]c2cccnc12` [Example D25]: 18 nM; `Cn1c(COc2cc(Cl)c(C#N)cc2-c2cccc(F)c2F)n[nH]c1=O` [Example B91]: 4 nM.
For `COCC(=O)NCc1ccc(F)c(-c2cc(Cl)c(C)cc2OCc2n[nH]c(=O)n2C)c1` [Example B83] the value was 8 nM.
Next, `Cc1cc(OCc2n[nH]c3nc(NCCO)ncc23)c(C(C)(C)C)cc1Cl` [Example D30]: 9 nM.
